The results in this text go back to US12186319B2, “Crosslinked polymer nanoparticles for targeted cellular uptake and therapeutics, and compositions and methods thereof” (University of Massachusetts, priority 2017, dated 2025).

A short description of this series: Encapsulation of drug within HA-decorated nanoparticles (FIG. 1, visual). The class given is physicochemical. Particulars: FIG. 1B/1C, colour of solution. The protocol:
The dye is however stably encapsulated in crosslinked HA-decorated nanoparticles (right).
MTX and MMTX encapsulation: A suspension of modified HA (1 mg/mL), crosslinker (2 mg/mL) and Irgacure 2959 (0.5 mg/mL) in water (1 mL) was stirred at RT for 30 mins and purged with argon for 10 mins. To this solution, MTX (100 μL, 6 mg/mL) or MMTX (100 μL, 6 mg/mL) or DMSO 100 μL (control) was added. The reaction mixture was exposed to UV irradiation for 10 min. Afterwards, the free drug was removed by dialyzing the solution against DI water for 48 h and filtered through a hydrophilic membrane (pore size: 0.45 μm). The resulting solution was used to estimate the size of the drug loaded PNPs using dynamic light scattering.

On to `CN(Cc1cnc2nc(N)nc(N)c2n1)c1ccc(C(=O)N[C@@H](CCC(=O)O)C(=O)O)cc1` [MTX, Methotrexate], for which the “encapsulation within HA-decorated nanoparticles” value was “no encapsulation is discernible”.
